In PMC4417528, “Loureirin B, an essential component of Sanguis Draxonis, inhibits Kv1.3 channel and suppresses cytokine release from Jurkat T cells” (Cell & Bioscience, 2014) one finds IC50 data, which are given here for 1 molecule.

Assay type in all cases: cell-based
Assay [1] deals with T1, mKv1.3-H404T (Mus musculus, UniProt P16390, H404T).
T1 construct: gene Kcna3; mKv1.3 mutant expressed in HEK293T cells
Nature of the assay: whole-cell patch clamp, HEK293T cells, steady-state current at +[…] mV.

Assay [2] has as its target T2, mKv1.3 (Mus musculus, UniProt P16390).
T2 construct: gene Kcna3; wild-type mKv1.3 expressed in HEK293T cells
The description is as above.

Assay [3] concerns the target T3, Kv1.3 (Homo sapiens, UniProt P22001).
T3 construct: gene KCNA3; endogenous Kv1.3 in Jurkat T cells
Nature of the assay: whole-cell patch clamp, Jurkat T cells. A general note: The patch-clamp technique gives a direct electrical read-out from membranes.

Assay [4] addresses T4, mKv1.3-A418C (Mus musculus, UniProt P16390, A418C).
T4 construct: gene Kcna3; mKv1.3 mutant expressed in HEK293T cells
As to the kind of experiment: whole-cell patch clamp, HEK293T cells, steady-state current at +[…] mV.

T2 sequence (P16390 whole entry): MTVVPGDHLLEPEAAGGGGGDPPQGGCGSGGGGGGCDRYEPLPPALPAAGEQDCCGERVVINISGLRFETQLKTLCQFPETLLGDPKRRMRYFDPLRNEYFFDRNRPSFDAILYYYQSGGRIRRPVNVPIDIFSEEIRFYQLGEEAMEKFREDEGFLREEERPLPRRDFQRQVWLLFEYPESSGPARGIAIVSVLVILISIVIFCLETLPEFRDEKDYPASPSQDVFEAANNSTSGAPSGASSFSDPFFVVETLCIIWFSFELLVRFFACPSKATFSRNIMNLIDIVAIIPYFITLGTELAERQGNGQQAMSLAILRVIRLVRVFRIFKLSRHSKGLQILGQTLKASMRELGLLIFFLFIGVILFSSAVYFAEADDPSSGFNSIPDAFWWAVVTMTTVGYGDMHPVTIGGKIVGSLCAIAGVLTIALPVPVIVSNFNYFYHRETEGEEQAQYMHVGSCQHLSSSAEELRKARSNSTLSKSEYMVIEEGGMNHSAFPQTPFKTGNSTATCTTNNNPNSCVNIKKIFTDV
T3 sequence (P22001 whole entry): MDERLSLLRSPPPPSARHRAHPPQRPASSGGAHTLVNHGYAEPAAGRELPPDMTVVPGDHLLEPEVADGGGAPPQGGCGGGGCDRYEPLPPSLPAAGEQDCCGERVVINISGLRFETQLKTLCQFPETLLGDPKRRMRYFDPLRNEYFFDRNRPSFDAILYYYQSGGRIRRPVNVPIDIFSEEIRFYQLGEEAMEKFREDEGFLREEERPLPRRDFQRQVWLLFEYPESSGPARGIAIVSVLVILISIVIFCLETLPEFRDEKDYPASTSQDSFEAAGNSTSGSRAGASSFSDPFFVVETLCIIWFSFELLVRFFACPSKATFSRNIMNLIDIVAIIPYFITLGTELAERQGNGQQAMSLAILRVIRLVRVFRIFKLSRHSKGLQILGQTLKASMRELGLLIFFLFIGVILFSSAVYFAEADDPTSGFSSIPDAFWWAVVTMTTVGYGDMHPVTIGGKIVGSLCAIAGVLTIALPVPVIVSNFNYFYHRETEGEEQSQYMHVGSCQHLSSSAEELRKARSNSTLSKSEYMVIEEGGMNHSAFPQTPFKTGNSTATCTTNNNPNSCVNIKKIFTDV
T4 sequence (P16390 whole entry A418C): as the sequence (P16390 whole entry) above, with A418C counted along it
T1 sequence (P16390 whole entry H404T): as the sequence (P16390 whole entry) above, with H404T counted along it

With `COc1cc(OC)c(CCC(=O)c2ccc(O)cc2)c(OC)c1` [LrB, loureirin B], the 50% inhibitory concentration (IC50) came to 116 ± 19.8 µM in assay [1], 7.2 ± 0.6 µM in assay [2], 19.9 ± 1.8 µM in assay [3] and 29.1 ± 7.1 µM in assay [4].

As a reminder, the IC50 is the concentration at which inhibition is half-maximal. Low values mean greater potency in that assay, high ones weaker potency in that assay.
